Values quoted from earlier work, collected in patent US20240066021A1, “METHODS FOR OPTIMIZING CFTR-MODULATOR THERAPY” (Children's Hospital Medical Center, priority 2021, published 2024).

Legend:
UFO = biological target: T1, UFO (Homo sapiens, UniProt P30530); conditions: Target UFO, Gene Symbol AXL
T1 sequence (P30530 26-894): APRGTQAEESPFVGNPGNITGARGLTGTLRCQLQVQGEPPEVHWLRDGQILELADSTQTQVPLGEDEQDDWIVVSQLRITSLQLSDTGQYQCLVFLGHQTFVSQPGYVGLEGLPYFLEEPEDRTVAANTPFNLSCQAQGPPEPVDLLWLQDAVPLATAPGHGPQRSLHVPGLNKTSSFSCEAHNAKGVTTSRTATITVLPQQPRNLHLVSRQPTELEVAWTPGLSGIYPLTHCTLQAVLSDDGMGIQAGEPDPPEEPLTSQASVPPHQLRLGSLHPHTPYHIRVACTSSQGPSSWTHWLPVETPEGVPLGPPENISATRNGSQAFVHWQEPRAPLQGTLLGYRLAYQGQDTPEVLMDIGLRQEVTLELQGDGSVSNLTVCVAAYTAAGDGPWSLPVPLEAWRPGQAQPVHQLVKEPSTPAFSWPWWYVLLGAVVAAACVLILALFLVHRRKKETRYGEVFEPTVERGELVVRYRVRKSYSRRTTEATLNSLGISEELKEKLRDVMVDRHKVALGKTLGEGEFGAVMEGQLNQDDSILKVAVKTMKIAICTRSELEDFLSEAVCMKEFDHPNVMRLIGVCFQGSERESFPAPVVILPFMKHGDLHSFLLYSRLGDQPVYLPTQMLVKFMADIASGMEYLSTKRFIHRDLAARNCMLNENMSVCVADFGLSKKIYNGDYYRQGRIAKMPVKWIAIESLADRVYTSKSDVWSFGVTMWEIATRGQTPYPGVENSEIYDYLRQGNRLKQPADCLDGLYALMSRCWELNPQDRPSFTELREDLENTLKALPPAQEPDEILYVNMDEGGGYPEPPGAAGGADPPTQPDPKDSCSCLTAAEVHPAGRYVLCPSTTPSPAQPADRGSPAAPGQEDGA

CENP-E = CENP-E (Homo sapiens, UniProt Q02224); conditions: Target CENP-E, Gene Symbol CENPE
Sequence of CENP-E (Q02224 whole entry): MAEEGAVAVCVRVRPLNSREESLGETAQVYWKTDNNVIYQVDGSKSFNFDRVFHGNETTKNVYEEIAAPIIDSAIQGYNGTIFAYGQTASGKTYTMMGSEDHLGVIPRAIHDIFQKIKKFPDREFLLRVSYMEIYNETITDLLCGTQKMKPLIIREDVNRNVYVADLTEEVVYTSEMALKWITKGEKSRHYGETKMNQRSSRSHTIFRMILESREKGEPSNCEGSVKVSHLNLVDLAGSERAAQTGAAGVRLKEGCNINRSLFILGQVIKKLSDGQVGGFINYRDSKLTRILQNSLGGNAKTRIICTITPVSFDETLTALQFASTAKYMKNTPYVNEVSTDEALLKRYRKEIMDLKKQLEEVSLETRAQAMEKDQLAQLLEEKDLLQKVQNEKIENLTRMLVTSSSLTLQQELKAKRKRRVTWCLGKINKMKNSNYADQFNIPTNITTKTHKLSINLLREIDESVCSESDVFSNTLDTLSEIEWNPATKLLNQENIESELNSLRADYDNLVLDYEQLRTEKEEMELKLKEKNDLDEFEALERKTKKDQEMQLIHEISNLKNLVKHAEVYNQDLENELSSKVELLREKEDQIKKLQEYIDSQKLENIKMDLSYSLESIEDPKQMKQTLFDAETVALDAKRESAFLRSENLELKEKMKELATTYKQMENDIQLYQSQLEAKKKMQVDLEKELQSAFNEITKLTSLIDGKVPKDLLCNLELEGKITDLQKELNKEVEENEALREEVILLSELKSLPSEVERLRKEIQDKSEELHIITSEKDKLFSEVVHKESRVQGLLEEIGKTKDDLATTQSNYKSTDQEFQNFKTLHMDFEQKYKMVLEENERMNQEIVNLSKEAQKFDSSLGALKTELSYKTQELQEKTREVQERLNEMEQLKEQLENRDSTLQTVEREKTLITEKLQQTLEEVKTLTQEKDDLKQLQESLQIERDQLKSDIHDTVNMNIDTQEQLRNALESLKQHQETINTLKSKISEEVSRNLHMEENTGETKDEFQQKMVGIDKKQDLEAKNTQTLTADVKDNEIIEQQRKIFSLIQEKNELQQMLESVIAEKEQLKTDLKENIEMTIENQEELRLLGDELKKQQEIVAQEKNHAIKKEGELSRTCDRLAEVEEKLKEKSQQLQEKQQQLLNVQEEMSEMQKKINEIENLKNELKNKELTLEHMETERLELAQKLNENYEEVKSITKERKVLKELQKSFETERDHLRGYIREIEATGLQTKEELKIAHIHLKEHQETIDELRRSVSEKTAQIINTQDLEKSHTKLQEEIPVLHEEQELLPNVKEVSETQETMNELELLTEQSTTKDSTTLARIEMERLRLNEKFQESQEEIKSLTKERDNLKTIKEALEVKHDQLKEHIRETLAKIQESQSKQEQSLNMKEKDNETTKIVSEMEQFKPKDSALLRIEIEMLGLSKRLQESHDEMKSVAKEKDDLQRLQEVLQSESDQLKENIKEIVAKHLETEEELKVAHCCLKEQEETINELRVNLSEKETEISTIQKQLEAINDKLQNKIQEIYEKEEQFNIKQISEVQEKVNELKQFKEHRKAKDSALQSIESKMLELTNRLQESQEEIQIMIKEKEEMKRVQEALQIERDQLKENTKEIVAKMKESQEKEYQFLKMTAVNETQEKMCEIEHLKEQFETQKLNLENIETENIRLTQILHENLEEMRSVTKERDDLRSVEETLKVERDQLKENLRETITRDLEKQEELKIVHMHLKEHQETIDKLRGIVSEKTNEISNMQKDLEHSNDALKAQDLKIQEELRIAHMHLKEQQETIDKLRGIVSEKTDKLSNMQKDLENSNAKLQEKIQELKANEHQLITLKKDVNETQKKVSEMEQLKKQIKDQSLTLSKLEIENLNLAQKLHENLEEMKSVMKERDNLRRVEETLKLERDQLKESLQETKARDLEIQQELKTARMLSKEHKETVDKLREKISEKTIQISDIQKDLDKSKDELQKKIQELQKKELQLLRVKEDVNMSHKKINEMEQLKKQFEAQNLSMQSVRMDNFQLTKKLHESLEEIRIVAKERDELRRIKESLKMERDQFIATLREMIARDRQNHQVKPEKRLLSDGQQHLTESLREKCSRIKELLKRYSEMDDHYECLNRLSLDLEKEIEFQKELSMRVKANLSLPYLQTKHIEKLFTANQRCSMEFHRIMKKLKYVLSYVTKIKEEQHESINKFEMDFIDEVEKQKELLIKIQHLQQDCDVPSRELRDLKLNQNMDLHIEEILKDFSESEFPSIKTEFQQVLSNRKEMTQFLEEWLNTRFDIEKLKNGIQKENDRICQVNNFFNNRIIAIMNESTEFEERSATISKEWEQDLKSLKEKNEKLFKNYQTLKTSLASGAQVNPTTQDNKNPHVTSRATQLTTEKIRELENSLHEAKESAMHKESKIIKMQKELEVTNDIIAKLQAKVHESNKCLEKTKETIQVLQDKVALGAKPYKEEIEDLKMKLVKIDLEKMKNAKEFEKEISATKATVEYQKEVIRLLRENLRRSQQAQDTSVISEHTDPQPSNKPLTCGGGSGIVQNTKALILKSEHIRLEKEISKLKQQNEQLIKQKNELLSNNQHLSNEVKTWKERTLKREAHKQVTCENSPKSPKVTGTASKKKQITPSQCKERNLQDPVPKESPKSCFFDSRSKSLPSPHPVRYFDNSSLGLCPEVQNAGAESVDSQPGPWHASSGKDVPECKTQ

Row | Effect (UFO) | Effect (CENP-E) | SMILES
1 | Inhibition | – | COc1cc2c(Oc3ccc(NC(=O)C4(C(=O)Nc5ccc(F)cc5)CC4)cc3F)ccnc2cc1OCCCN1CCOCC1 [Foretinib]
2 | – | Inhibition | CC(C)Oc1ccc(C(=O)N[C@H](CNC(=O)CN(C)C)Cc2ccc(-c3cn4cccc([C@H](C)O)c4n3)cc2)cc1Cl [GSK-923295]
